Read-outs that look alike come from different tables or passages of the source.
What was measured:
[1] = Pharmacokinetic study in rat plasma after oral administration of QJYQ (UHPLC-sMRM); assay type: in vivo, Sprague-Dawley rats
Experimental: Exion LC AD tandem Blueline 3500 triple quadrupole mass spectrometer (AB SCIEX, Framingham, MA, United States) was used to thirty-three compounds in rat plasma. […] The whole detailed parameters of sMRM were obtained in Supplementary Table S1.
Rat plasma (100 μL) was mixed with 10% formic acid (10 μL) and vortexed for 1 min at room temperature. ISs (10 μL) and methanol/acetonitrile (1/1, v/v) (400 μL) were added and vortexed for 5 min, then centrifuged for 10 min at 14,000 rpm and 4°C. The transported supernatant was condensed to dryness under the flow of nitrogen gas. The dried residue was reconstituted with 70% methanol (100 μL) by vortex-mixing for 5 min and centrifuging at 14,000 rpm for 10 min. Last, 2 μL of the solution were injected into the UHPLC-sMRM system.
The pharmacokinetic study was approved by the Animal Ethics Committee of Tianjin University of Traditional Chinese Medicine (TCM-LAEC2021228). Ten male Sprague-Dawley rats (weight 220–240 g) was kept at the animal center of Tianjin University of Traditional Chinese Medicine (Tianjin, China). […] The sample was transferred right away following a 10 min period of centrifugation at 7000 rpm and 4°C. All plasma samples were frozen and stored at −80°C.
All the pharmacokinetic parameters were calculated using the DAS 1.0 software (Drug and Statistics 1.0, Medical College of Wannan, China). Pharmacokinetic parameters include the maximum drug concentration in plasma (Cmax), the time to achieve maximum drug concentration (Tmax), the area under the plasma concentration-time curve (AUC), elimination half-life (T1/2), and mean residence time (MRT). The pharmacokinetic parameters were computed using the non-compartmental model. All data are expressed as mean ± standard deviation (SD). GraphPad Prism 8.0 (GraphPad Software Inc., La Jolla, CA, United States) software was used to draw the drug-time curve.

[2] = Stability of the working solution (4°C for 1 month); assay type: physicochemical
[3] = Stability of analytes in rat plasma (auto-sampler, freeze-thaw, room temperature, long-term); settings: for Autosampler for 24 h Accuracy (%): autosampler 24 h; for Room temperature for 24 h Accuracy (%): room temperature 24 h; for Freeze thaw cycles Accuracy (%): three freeze-thaw cycles
Experimental: The stability of analytes in plasma was evaluated by analyzing 4 QC samples (n = 6). The stability was included auto-sampler stability (keeping the sample in auto-sampler for 24 h), three times of freeze-thaw cycles stability (freezing cycle at −80°C, thawing cycle at room temperature), room temperature stability (storing samples at room temperature for 24 h), long-term stability (storing samples at −80°C for 1 month). […] Accompanying curve was established when testing the sample, calculate and compare the ratio of the actual measured concentration to the theoretical concentration, expressed in accuracy and RSD.

[4] = rat plasma, oral QJYQ 3.15 g/kg, n = 8, mean ± SD

CC1(C)[C@@H](O[C@H]2O[C@H](C(=O)O)[C@@H](O)[C@H](O)[C@H]2O[C@@H]2O[C@H](C(=O)O)[C@@H](O)[C@H](O)[C@H]2O)CC[C@]2(C)[C@H]3C(=O)C=C4[C@@H]5C[C@@](C)(C(=O)O)CC[C@]5(C)CC[C@@]4(C)[C@]3(C)CC[C@@H]12 [glycyrrhizic acid]
Tmax ([1]; male, Sprague-Dawley, rat, plasma, po, 3.15 g/kg, rat plasma, oral QJYQ 3.15 g/kg, n = 8, mean ± SD, read-out: Tmax): < 0.5 h | half-life ([1]; male, Sprague-Dawley, rat plasma, oral QJYQ 3.15 g/kg, n = 8, mean ± SD): 1.67 ± 0.16 h | AUC(0-t) ([1]; male, Sprague-Dawley, rat plasma, oral QJYQ 3.15 g/kg, n = 8, mean ± SD, read-out: AUC(0-t)): 1110 ± 138 ng·h/mL | AUC(0-inf) ([1]; male, Sprague-Dawley, rat plasma, oral QJYQ 3.15 g/kg, n = 8, mean ± SD, read-out: AUC(0-∞)): 1120 ± 228 ng·h/mL | Cmax ([1]; male, Sprague-Dawley, rat plasma, oral QJYQ 3.15 g/kg, n = 8, mean ± SD, read-out: Cmax): 359 ± 147 ng/mL | MRT inf ([1]; male, Sprague-Dawley, rat plasma, oral QJYQ 3.15 g/kg, n = 8, mean ± SD, read-out: MRT (0-∞)): 5.38 ± 1.16 h | MRT last ([1]; male, Sprague-Dawley, rat plasma, oral QJYQ 3.15 g/kg, n = 8, mean ± SD, read-out: MRT(0-t)): 5.3 ± 0.28 h | Working solution Accuracy (%) ([2]; concentration 50 ng/mL): 88.5% | Working solution Accuracy (%) ([2]; concentration 100 ng/mL): 104.0% | Working solution Accuracy (%) ([2]; concentration 500 ng/mL): 87.0% | Autosampler for 24 h Accuracy (%) ([3]; concentration 12.5 ng/mL): 94.4% | Autosampler for 24 h Accuracy (%) ([3]; concentration 50 ng/mL): 100.0% | Autosampler for 24 h Accuracy (%) ([3]; concentration 100 ng/mL): 94.3% | Autosampler for 24 h Accuracy (%) ([3]; concentration 500 ng/mL): 94.5% | Room temperature for 24 h Accuracy (%) ([3]; concentration 50 ng/mL): 94.6% | Room temperature for 24 h Accuracy (%) ([3]; concentration 100 ng/mL): 107.0% | Room temperature for 24 h Accuracy (%) ([3]; concentration 500 ng/mL): 89.9% | Freeze thaw cycles Accuracy (%) ([3]; concentration 12.5 ng/mL): 84.6% | Freeze thaw cycles Accuracy (%) ([3]; concentration 500 ng/mL): 97.0% | −80°C for 1month Accuracy (%) ([3]; −80°C for 1 month, concentration 12.5 ng/mL): 85.6% | −80°C for 1month Accuracy (%) ([3]; −80°C for 1 month, concentration 50 ng/mL): 89.7% | −80°C for 1month Accuracy (%) ([3]; −80°C for 1 month, concentration 100 ng/mL): 96.2% | −80°C for 1month Accuracy (%) ([3]; −80°C for 1 month, concentration 500 ng/mL): 93.4%

COc1ccc([C@@H]2CC(=O)c3c(O)cc(O[C@@H]4O[C@H](CO[C@@H]5O[C@@H](C)[C@H](O)[C@@H](O)[C@H]5O)[C@@H](O)[C@H](O)[C@H]4O)cc3O2)cc1O [hesperidin]
AUC(0-t) [1, 4]: 1058.05 ± 267.32 ng·h/mL | AUC(0-∞) [1, 4]: 1058.06 ± 267.32 ng·h/mL | Cmax [1, 4]: 604.36 ± 145.25 ng/mL | MRT (0-∞) [1, 4]: 4.52 ± 0.54 h | MRT(0-t) [1, 4]: 4.52 ± 0.54 h | T1/2 [1, 4]: 1.94 ± 0.03 h | Working solution Accuracy (%) ([2]; 12.5 ng/mL): 81.7% | Working solution Accuracy (%) ([2]; 50 ng/mL): 109.0% | Working solution Accuracy (%) ([2]; 100 ng/mL): 102.0% | Working solution Accuracy (%) ([2]; 500 ng/mL): 91.0% | Autosampler for 24 h Accuracy (%) ([3]; 12.5 ng/mL): 82.1% | Room temperature for 24 h Accuracy (%) ([3]; 12.5 ng/mL): 84.1% | Freeze thaw cycles Accuracy (%) ([3]; 12.5 ng/mL): 94.3% | −80°C for 1month Accuracy (%) ([3]; 12.5 ng/mL, −80°C 1 month): 81.8% | Autosampler for 24 h Accuracy (%) ([3]; 50 ng/mL): 100.0% | Room temperature for 24 h Accuracy (%) ([3]; 50 ng/mL): 93.7% | Freeze thaw cycles Accuracy (%) ([3]; 50 ng/mL): 85.4% | −80°C for 1month Accuracy (%) ([3]; 50 ng/mL, −80°C 1 month): 85.8% | Autosampler for 24 h Accuracy (%) ([3]; 100 ng/mL): 96.0% | Room temperature for 24 h Accuracy (%) ([3]; 100 ng/mL): 92.3% | Freeze thaw cycles Accuracy (%) ([3]; 100 ng/mL): 95.7% | −80°C for 1month Accuracy (%) ([3]; 100 ng/mL, −80°C 1 month): 93.1% | Autosampler for 24 h Accuracy (%) ([3]; 500 ng/mL): 87.8% | Room temperature for 24 h Accuracy (%) ([3]; 500 ng/mL): 92.3% | Freeze thaw cycles Accuracy (%) ([3]; 500 ng/mL): 89.1% | −80°C for 1month Accuracy (%) ([3]; 500 ng/mL, −80°C 1 month): 93.6%

O=C(O)[C@H]1O[C@@H](Oc2cc(O)c3c(=O)cc(-c4ccc(O)cc4)oc3c2)[C@H](O)[C@@H](O)[C@@H]1O [apigenin-7-O-glucuronide]
AUC(0-t) ([1]; rat, in vivo, po, 3.15 g/kg): 14603.11 ± 7523.95 ng·h/mL | AUC(0-∞) ([1]; rat, in vivo, po, 3.15 g/kg): 15028.42 ± 7667.50 ng·h/mL | Cmax ([1]; rat, in vivo, po, 3.15 g/kg): 167.50 ± 108.49 ng/mL | MRT ([1]; rat, in vivo, po, 3.15 g/kg): greater than 8 h | MRT (0-∞) ([1]; rat, in vivo, po, 3.15 g/kg): 8.62 ± 1.65 h | MRT(0-t) ([1]; rat, in vivo, po, 3.15 g/kg): 8.39 ± 1.62 h | T1/2 ([1]; rat, in vivo, po, 3.15 g/kg): 4.17 ± 1.51 h | Tmax ([1]; rat, in vivo, po, 3.15 g/kg): 4.65 ± 2.79 h | Working solution Accuracy (%) ([2]; 1.56 ng/mL): 83.6% | Working solution Accuracy (%) ([2]; 12.5 ng/mL): 112.0% | Working solution Accuracy (%) ([2]; 100 ng/mL): 88.5% | Working solution Accuracy (%) ([2]; 500 ng/mL): 93.2% | Autosampler for 24 h Accuracy (%) ([3]; 1.56 ng/mL): 103.0% | Room temperature for 24 h Accuracy (%) ([3]; 1.56 ng/mL): 114.0% | Freeze thaw cycles Accuracy (%) ([3]; 1.56 ng/mL): 109.0% | −80°C for 1month Accuracy (%) ([3]; 1.56 ng/mL, −80°C 1 month): 104.0% | Autosampler for 24 h Accuracy (%) ([3]; 12.5 ng/mL): 93.2% | Room temperature for 24 h Accuracy (%) ([3]; 12.5 ng/mL): 92.2% | Freeze thaw cycles Accuracy (%) ([3]; 12.5 ng/mL): 85.6% | −80°C for 1month Accuracy (%) ([3]; 12.5 ng/mL, −80°C 1 month): 86.0% | Autosampler for 24 h Accuracy (%) ([3]; 100 ng/mL): 94.1% | Room temperature for 24 h Accuracy (%) ([3]; 100 ng/mL): 90.4% | Freeze thaw cycles Accuracy (%) ([3]; 100 ng/mL): 86.4% | −80°C for 1month Accuracy (%) ([3]; 100 ng/mL, −80°C 1 month): 85.0% | Autosampler for 24 h Accuracy (%) ([3]; 500 ng/mL): 85.5% | Room temperature for 24 h Accuracy (%) ([3]; 500 ng/mL): 104.0% | Freeze thaw cycles Accuracy (%) ([3]; 500 ng/mL): 88.3% | −80°C for 1month Accuracy (%) ([3]; 500 ng/mL, −80°C 1 month): 108.0%
